Results taken from patent US20240293304A1, “SULFONATE-FUNCTIONALIZED ALKYL POLYGLUCOSIDES AS SULFATE-FREE SURFACTANTS FOR TOOTHPASTE AND MOUTHWASH” (Colonial Chemical, Inc., priority 2021, published 2024).

Assays:
[1] = test system: gingival tissues (MatTek EpiGingival); assay: MatTek EpiGingival in vitro gingival irritation potential; assay type: cell-based; details: 2% SLS
From the text: Suga®Nate 160NC has been tested for its oral and gingival irritation potential in vitro (MatTek EpiOral™ & EpiGingival™). […] Taken together, the results reveal that Suga®Nate 160NC, even as a neat product, is less irritating to oral and gingival tissues than 2% SLS.

[2] = test system: In vitro epidermal keratinocytes; assay type: cell-based

Row | ET-50 [2] [min] | Molecule | ET-50 [1] [min] | gingival irritation [1] | eye irritation classification [2]
1 |  | CCCCCCCCCCCCOS(=O)(=O)[O-].[Na+] [SLS] | 418.2 | resulted in gingival irritation | 
2 | ≥ 256 | sodium hydroxypropylsulfonate laurylglucoside crosspolymer [Poly Suga®Nate 160P NC] |  |  | non-irritating
3 |  | sorbitan oleate decylglucoside crosspolymer [Poly Suga®Mulse D9] |  |  | non-irritating
